According to ChEMBL document CHEMBL2095176, “GSK Tuberculosis Screening Data”:
Values after ≈ are worked out from the molar mass of the structure shown.

System: Mycobacterium tuberculosis variant bovis BCG
Assay: microbe, parasite or virus in culture
Format: functional

| Compound | MIC90 |
| --- | --- |
| c1ccc2nc(CN3CCC4(CC3)OCCc3sccc34)ccc2c1 | 9.1 µM (≈ 3.19 µg/mL) |
| CC(C)c1ccc(-c2cncc(N3CCN(c4ccncc4)CC3)n2)cc1 | 5.1 µM (≈ 1.83 µg/mL) |
| N#Cc1cc(C(=O)COc2ccc(CC3SC(=O)NC3=O)cc2)ccc1N (stereo unspecified) | 1.1 µM (≈ 0.42 µg/mL) |
| NC(=O)c1ccc(-c2cccc(OCCNCCc3cccc(F)c3)c2)cc1 | 3.1 µM (≈ 1.17 µg/mL) |
| CC1(C)NC(N)=NC(=N)N1OCCCOc1ccc2ccccc2c1 | 9.5 µM (≈ 3.24 µg/mL) |
| O=C(Nc1nc(-c2cccnc2)cs1)c1ccc(Br)s1 | 1.4 µM (≈ 0.513 µg/mL) |
| O=C(COc1ccccc1F)Nc1nc(-c2ccccn2)cs1 | 8.7 µM (≈ 2.87 µg/mL) |
| COc1ccc(-c2cccc(NC(=O)NC3CCCCC3)c2)cn1 | 8.8 µM (≈ 2.86 µg/mL) |
| Brc1c(-c2ccc3c(c2)OCO3)nc2ncccn12 | 2.4 µM (≈ 0.764 µg/mL) |
| O=C(c1cc2c(s1)CCC2)N1CCN(Cc2ccc3c(c2)OCO3)CC1 | 9.2 µM (≈ 3.41 µg/mL) |
| COc1ccc(CCC(=O)Nc2ccccc2Nc2ccc(OC)cc2)cc1 | 3.9 µM (≈ 1.47 µg/mL) |
| Cc1cccc(-c2nc(Nc3ccncn3)c3c(C)csc3n2)n1 | 0.3 µM (≈ 0.1 µg/mL) |
| COc1cc2c(cc1OC)C(c1ccccc1)N(C(=O)c1nn(C)c(=O)c3ccccc13)CC2 (stereo unspecified) | 6.3 µM (≈ 2.87 µg/mL) |
| O=C(Nc1nnc(-c2ccccc2)o1)c1ccc(F)cc1 | 5.8 µM (≈ 1.64 µg/mL) |
| Cn1cc(C(=O)NCCc2ccccc2)c(=O)c2cc(S(=O)(=O)N3CCCC3)ccc21 | 4.6 µM (≈ 2.02 µg/mL) |
| COc1ccc(CN(C)S(=O)(=O)c2ccc(OC)c(-c3nc(C(C)C)no3)c2)cc1 | 7.3 µM (≈ 3.15 µg/mL) |
| CC1=Nc2ccccc2CN1CC(O)c1cc(Br)cs1 (stereo unspecified) | 8.4 µM (≈ 2.95 µg/mL) |
| Cc1ccc(CNC(=O)c2cnn3c2NC(c2ccc(C)cc2)CC3C(F)F)cc1 (stereo unspecified) | 0.9 µM (≈ 0.369 µg/mL) |
| COc1ccc(-c2csc(NC(=O)c3cnc(SC)nc3)n2)cc1 | 1.1 µM (≈ 0.394 µg/mL) |

| Compound | MIC90 |
| --- | --- |
| CSc1cccc(C(=O)Nc2nc(-c3ccccn3)cs2)c1 | 4.6 µM (≈ 1.51 µg/mL) |
| CS(=O)(=O)c1cccc(C(=O)Nc2nc(-c3ccccn3)cs2)c1 | 3.3 µM (≈ 1.19 µg/mL) |
| Cc1ccc(C(=O)Nc2nc(-c3ccccn3)cs2)s1 | 3.7 µM (≈ 1.12 µg/mL) |
| O=C(Nc1nncs1)c1c(O)c2ccccc2n(Cc2ccccc2)c1=O | 6.9 µM (≈ 2.61 µg/mL) |
| CC(=O)NCCn1c(Sc2ccnc(N3CCN(c4ccncc4)CC3)n2)nnc1-c1ccco1 | 2.6 µM (≈ 1.28 µg/mL) |
| Cc1ccc(N2CCN(CCOc3cccc(-c4ccc(C(=O)N5CCCC5)cc4)c3)CC2)cc1C | 2.4 µM (≈ 1.16 µg/mL) |
| Br.Cc1ccccc1OCCCON1C(=N)N=C(N)NC1(C)C | 7 µM |
| CC1CCCC(NC(=O)Nc2ccc3snnc3c2)C1C (stereo unspecified) | 3.1 µM (≈ 0.944 µg/mL) |
| O=C(COc1ccc(F)cc1Cl)Nc1nc(-c2ccccn2)cs1 | 3.9 µM (≈ 1.42 µg/mL) |
| Cc1ccc(NC(=O)c2nc(N3CCCN(C)CC3)ccc2Cl)cc1F | 8.8 µM (≈ 3.32 µg/mL) |
| Cc1cc2cc(C)c(NCCN)nc2cc1C | 5.7 µM (≈ 1.31 µg/mL) |
| O=C(Cn1c(SCc2ccccc2F)nc2ccncc21)Nc1ccc(Br)cc1F | 8.3 µM (≈ 4.06 µg/mL) |
| CCc1ccc(Nc2nnc(SCc3cc(C)on3)s2)cc1 | 7.4 µM (≈ 2.46 µg/mL) |
| Cc1[nH]n2c(=O)cc(-c3ccccc3Cl)nc2c1-c1ccccc1 | 8.1 µM (≈ 2.72 µg/mL) |
| Cc1nc2ccccc2n1CC(O)COc1ccc(NC(=O)c2ccccc2)cc1 (stereo unspecified) | 3.9 µM (≈ 1.57 µg/mL) |
| Cc1cnc(CNCc2ccc(-c3ccc(C(=O)NCCc4ccccc4)c(F)c3)cc2)cn1 | 5.5 µM (≈ 2.5 µg/mL) |
| O=C(Nc1cccc(C(=O)N2CCCCC2c2nc3ccccc3s2)c1)c1cccs1 (stereo unspecified) | 0.1 µM (≈ 0.0448 µg/mL) |
| COc1ccc(C(=O)Nc2nnc(-c3ccc4c(c3)CCCC4)o2)cc1 | 3 µM (≈ 1.05 µg/mL) |
| Cc1ccc2c(CC(=O)Nc3nc(-c4ccccn4)cs3)coc2c1 | 10 µM (≈ 3.49 µg/mL) |

| Compound | MIC90 |
| --- | --- |
| Cc1cc(C)n(-c2nc3ccccc3c(=O)[nH]2)n1 | 3.3 µM (≈ 0.793 µg/mL) |
| Cc1ccc2sc(N(CCCn3ccnc3)C(=O)c3cccs3)nc2c1C | 9.5 µM (≈ 3.77 µg/mL) |
| NC(=O)C(N)Cc1c[nH]c2ccc(F)cc12 (stereo unspecified) | 2.3 µM (≈ 0.509 µg/mL) |
| CCn1c(-c2nonc2N)nc2c(C#Cc3ccccc3)ncc(OCCCCN)c21 | 8.1 µM (≈ 3.38 µg/mL) |
| c1csc(-c2nnc(Sc3ccnc(N4CCN(c5ccncc5)CC4)n3)n2CCCN2CCOCC2)c1 | 5.4 µM (≈ 2.97 µg/mL) |
| O=C(NC1CCSc2ccccc21)c1ccc(S(=O)(=O)N2CCOCC2)cc1 (stereo unspecified) | 3.3 µM (≈ 1.38 µg/mL) |
| N#Cc1ccc(-c2ccc(OCC(=O)NNC(=O)c3ccco3)cc2)cc1 | 2.8 µM (≈ 1.01 µg/mL) |
| COc1cc(CN2CCCC(c3cc(C(F)(F)F)n4nc(C)cc4n3)C2)ccc1O (stereo unspecified) | 6 µM (≈ 2.52 µg/mL) |
| Nc1cc(OCc2ccccc2)ccc1Nc1ccccc1 | 2.1 µM (≈ 0.61 µg/mL) |
| Fc1ccc(-c2nnc3sc(Cc4ccccc4)nn23)cc1 | 8.6 µM (≈ 2.67 µg/mL) |
| O=C(c1ccc(-c2cccc(OCCN3CCC(c4ccc(F)cc4)CC3)c2)cc1)N1CCCC1 | 4.4 µM (≈ 2.08 µg/mL) |
| Cc1cc(C)c2cc(C#N)c(N3CCCNCC3)nc2c1 | 4.3 µM (≈ 1.21 µg/mL) |
| CCn1c(NC(=O)Cc2ccc(Cl)cc2)nc2ccccc21 | 9.8 µM (≈ 3.08 µg/mL) |
| Cc1cc(C)c(C)c(OCCCCNCc2ccco2)c1 | 7.8 µM (≈ 2.24 µg/mL) |
| Brc1ccc(-c2noc(C3CCCNC3)n2)cc1 (stereo unspecified) | 6.2 µM (≈ 1.91 µg/mL) |
| NC(=O)c1csc(-c2cccc(OCCNCCc3cccc(F)c3)c2)n1 | 2 µM (≈ 0.771 µg/mL) |
| Clc1ccc(-c2nnc3sc(Cc4cccs4)nn23)cc1 | 7.5 µM (≈ 2.5 µg/mL) |
| c1ccc(-c2nnc(Sc3ccnc(N4CCN(c5ccncc5)CC4)n3)n2CCCN2CCOCC2)cc1 | 6.3 µM (≈ 3.43 µg/mL) |
